In the kinase profiling compilation of Christmann-Franck et al. (2016):

How the values were obtained:
Assay in all cases: radiometric filter-binding kinase assay, Kinase HotSpot
Settings in all cases: compound 0.5 µM; ATP 10 µM
PTK2B (human) = PTK2B (human) (UniProt Q14289)
CAMK2D (human) = CAMK2D (human) (UniProt Q13557)
MUSK (human) = MUSK (human) (UniProt O15146)
OXSR1 (human) = OXSR1 (human) (UniProt O95747)
RPS6KB2 (human) = RPS6KB2 (human) (UniProt Q9UBS0)
PIM2 (human) = PIM2 (human) (UniProt Q9P1W9)
CSNK1G2 (human) = CSNK1G2 (human) (UniProt P78368)
PRKCD (human) = PRKCD (human) (UniProt Q05655)
ROCK2 (human) = ROCK2 (human) (UniProt O75116)
MAPK9 (human) = MAPK9 (human) (UniProt P45984)
MAPK9 (human), sequence (P45984 whole entry, looked up): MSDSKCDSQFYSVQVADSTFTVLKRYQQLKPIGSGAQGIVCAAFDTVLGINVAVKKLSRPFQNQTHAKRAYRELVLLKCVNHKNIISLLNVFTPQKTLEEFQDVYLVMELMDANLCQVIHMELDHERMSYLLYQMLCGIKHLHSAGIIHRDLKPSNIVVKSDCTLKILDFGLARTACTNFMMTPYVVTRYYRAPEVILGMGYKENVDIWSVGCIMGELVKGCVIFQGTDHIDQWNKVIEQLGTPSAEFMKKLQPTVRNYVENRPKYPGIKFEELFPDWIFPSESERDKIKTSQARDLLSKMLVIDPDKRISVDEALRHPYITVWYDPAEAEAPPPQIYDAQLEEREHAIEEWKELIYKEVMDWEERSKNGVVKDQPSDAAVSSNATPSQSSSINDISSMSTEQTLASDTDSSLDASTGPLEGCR

MAP4K4 (human) = MAP4K4 (human) (UniProt O95819)
CAMK2G (human) = CAMK2G (human) (UniProt Q13555)
CAMK1G (human) = CAMK1G (human) (UniProt Q96NX5)
DYRK1B (human) = DYRK1B (human) (UniProt Q9Y463)
STK3 (human) = STK3 (human) (UniProt Q13188)
STK3 (human), sequence (Q13188 whole entry, looked up): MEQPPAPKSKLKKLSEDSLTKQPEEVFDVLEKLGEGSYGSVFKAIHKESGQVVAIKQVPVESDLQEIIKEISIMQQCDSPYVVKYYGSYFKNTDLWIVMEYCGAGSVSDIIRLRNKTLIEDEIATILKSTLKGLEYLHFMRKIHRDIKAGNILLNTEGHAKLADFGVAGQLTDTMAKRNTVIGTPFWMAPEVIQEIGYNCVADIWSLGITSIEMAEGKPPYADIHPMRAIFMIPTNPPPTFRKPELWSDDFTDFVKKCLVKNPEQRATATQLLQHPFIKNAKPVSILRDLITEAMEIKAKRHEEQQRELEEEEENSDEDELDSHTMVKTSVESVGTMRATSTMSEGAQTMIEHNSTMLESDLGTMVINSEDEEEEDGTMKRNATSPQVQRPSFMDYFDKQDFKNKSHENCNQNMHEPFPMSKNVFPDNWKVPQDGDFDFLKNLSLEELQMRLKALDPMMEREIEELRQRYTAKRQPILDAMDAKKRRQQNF

ULK1 (human) = ULK1 (human) (UniProt O75385)
PTK2 (human) = PTK2 (human) (UniProt Q05397)
PTK6 (human) = PTK6 (human) (UniProt Q13882)
IKBKB (human) = IKBKB (human) (UniProt O14920)
IKBKB (human), sequence (O14920 whole entry, looked up): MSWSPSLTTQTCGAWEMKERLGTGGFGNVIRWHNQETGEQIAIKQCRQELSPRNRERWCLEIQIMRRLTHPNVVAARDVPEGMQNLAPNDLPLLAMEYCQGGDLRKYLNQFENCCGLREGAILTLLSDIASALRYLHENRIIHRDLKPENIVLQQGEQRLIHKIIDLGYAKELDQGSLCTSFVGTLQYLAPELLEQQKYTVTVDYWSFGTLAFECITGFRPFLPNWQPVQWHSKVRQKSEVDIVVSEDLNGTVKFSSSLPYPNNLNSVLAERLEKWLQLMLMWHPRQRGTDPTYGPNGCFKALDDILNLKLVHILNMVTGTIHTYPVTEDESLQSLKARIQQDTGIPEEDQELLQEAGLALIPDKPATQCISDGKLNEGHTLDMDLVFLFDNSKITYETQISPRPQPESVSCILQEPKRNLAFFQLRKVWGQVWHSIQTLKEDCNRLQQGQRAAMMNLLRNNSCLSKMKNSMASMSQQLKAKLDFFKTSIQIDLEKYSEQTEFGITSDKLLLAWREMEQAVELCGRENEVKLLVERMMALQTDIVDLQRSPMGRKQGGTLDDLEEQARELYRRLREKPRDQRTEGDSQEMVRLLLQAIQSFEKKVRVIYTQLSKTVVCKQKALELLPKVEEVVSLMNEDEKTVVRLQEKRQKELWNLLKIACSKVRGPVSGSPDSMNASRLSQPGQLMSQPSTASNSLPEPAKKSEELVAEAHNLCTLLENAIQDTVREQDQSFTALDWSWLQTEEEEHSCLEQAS

EPHA7 (human) = EPHA7 (human) (UniProt Q15375)
NEK11 (human) = NEK11 (human) (UniProt Q8NG66)
MARK1 (human) = MARK1 (human) (UniProt Q9P0L2)
PAK1 (human) = PAK1 (human) (UniProt Q13153)
TSSK2 (human) = TSSK2 (human) (UniProt Q96PF2)
FRK (human) = FRK (human) (UniProt P42685)
RET (human) = RET (human) (UniProt P07949)
RET (human), sequence (P07949 whole entry, looked up): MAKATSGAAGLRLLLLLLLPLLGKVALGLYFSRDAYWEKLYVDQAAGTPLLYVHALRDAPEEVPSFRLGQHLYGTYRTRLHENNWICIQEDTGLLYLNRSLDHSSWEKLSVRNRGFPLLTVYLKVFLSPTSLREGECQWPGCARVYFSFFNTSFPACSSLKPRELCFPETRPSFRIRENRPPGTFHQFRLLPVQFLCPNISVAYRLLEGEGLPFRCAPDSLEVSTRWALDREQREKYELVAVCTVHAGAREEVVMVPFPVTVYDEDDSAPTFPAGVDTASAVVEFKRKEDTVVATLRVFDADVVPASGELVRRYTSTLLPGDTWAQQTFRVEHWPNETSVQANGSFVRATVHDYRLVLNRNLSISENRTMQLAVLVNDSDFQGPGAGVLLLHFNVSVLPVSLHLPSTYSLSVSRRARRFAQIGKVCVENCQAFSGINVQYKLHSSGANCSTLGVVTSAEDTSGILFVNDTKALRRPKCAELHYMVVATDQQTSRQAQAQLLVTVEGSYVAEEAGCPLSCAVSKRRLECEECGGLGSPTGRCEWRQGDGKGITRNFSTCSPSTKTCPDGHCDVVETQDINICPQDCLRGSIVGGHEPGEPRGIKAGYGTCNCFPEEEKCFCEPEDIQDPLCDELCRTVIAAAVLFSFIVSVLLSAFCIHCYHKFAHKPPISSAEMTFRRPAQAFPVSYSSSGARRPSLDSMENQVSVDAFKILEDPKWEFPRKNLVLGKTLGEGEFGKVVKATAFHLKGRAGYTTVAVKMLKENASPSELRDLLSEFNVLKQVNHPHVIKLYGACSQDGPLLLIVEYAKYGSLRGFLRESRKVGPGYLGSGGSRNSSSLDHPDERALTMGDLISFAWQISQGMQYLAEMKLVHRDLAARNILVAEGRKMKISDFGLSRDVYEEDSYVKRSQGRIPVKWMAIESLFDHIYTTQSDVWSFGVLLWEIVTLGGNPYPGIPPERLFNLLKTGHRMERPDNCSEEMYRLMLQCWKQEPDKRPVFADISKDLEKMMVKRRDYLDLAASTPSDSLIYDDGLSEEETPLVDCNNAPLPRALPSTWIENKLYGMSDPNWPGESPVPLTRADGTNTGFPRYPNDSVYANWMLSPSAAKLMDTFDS

TAOK2 (human) = TAOK2 (human) (UniProt Q9UL54)
MET (human) = MET (human) (UniProt P08581)
SRMS (human) = SRMS (human) (UniProt Q9H3Y6)
NUAK1 (human) = NUAK1 (human) (UniProt O60285)
MST4 (human) = MST4 (human) (UniProt Q9P289)
GSK3B (human) = GSK3B (human) (UniProt P49841)
CDC42BPA (human) = CDC42BPA (human) (UniProt Q5VT25)
MATK (human) = MATK (human) (UniProt P42679)
STK11 (human) = STK11 (human) (UniProt Q15831)
NEK9 (human) = NEK9 (human) (UniProt Q8TD19)
PAK3 (human) = PAK3 (human) (UniProt O75914)
NEK7 (human) = NEK7 (human) (UniProt Q8TDX7)
FES (human) = FES (human) (UniProt P07332)
ADRBK1 (human) = ADRBK1 (human) (UniProt P25098)
IKBKE (human) = IKBKE (human) (UniProt Q14164)
EPHA1 (human) = EPHA1 (human) (UniProt P21709)

OXSR1 (human), sequence (O95747 whole entry, looked up): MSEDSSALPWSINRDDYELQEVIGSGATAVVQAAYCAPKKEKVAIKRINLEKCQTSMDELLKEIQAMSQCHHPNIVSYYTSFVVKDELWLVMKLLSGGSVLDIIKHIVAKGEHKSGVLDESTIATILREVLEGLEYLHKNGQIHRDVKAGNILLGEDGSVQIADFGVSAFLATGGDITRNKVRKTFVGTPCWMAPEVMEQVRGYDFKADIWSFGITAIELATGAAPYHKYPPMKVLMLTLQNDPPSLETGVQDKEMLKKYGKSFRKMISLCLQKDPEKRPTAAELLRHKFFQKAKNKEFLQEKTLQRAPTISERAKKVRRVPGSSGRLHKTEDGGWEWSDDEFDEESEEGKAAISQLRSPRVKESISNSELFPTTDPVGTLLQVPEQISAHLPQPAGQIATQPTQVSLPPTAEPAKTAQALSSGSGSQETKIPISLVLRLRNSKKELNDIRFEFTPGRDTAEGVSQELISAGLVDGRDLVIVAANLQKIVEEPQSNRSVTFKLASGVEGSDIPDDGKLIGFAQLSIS
PTK2B (human), sequence (Q14289 whole entry, looked up): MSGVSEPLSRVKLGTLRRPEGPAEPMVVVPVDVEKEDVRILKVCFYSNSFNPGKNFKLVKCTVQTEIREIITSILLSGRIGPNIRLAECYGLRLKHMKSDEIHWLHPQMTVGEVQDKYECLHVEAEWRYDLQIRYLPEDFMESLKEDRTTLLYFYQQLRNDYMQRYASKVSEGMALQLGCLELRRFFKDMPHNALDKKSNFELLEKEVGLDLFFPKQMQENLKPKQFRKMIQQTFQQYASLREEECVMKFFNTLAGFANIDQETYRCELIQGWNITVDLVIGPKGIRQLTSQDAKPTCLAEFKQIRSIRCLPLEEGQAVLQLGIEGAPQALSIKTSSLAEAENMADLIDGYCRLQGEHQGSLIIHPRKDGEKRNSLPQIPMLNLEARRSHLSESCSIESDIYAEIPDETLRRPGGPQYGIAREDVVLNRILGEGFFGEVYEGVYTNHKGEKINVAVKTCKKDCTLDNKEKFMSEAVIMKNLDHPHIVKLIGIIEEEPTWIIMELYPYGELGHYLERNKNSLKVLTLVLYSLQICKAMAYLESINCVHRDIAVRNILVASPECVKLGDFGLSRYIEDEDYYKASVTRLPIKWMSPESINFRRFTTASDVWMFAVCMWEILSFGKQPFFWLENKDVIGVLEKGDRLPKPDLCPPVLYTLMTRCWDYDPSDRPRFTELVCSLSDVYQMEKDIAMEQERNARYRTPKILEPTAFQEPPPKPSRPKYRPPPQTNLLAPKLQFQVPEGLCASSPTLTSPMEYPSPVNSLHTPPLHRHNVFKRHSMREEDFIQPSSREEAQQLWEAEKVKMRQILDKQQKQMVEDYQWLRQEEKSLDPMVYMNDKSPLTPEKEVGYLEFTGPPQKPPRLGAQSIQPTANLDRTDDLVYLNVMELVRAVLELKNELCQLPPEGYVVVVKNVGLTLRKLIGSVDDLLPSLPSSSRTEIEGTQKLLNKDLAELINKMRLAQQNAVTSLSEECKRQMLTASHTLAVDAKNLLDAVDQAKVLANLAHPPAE
CAMK2D (human), sequence (Q13557 whole entry, looked up): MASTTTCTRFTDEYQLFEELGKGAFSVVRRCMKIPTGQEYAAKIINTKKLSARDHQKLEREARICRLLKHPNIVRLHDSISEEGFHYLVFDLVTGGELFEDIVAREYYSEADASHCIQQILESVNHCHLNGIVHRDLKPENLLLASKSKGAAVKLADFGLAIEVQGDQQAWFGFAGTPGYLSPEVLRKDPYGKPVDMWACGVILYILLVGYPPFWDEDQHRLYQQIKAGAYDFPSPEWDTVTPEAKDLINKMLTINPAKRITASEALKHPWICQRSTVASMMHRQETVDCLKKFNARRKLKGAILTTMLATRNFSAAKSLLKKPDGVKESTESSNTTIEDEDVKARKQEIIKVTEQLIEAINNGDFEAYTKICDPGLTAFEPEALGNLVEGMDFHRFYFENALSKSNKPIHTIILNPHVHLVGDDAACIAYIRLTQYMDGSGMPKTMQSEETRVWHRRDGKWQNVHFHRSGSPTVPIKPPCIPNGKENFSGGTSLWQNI

O=c1cc(N2CCNCC2)oc2c(-c3ccccc3)cccc12 gave a residual activity (PTK2B (human)) of 88.3%, a residual activity (CAMK2D (human)) of 93.6% and a residual activity (MUSK (human)) of 103%. It also gave a residual activity (OXSR1 (human)) of 85.6%, a residual activity (RPS6KB2 (human)) of 91% and a residual activity (PIM2 (human)) of 121%. The residual activity (CSNK1G2 (human)) was 101%, the residual activity (PRKCD (human)) was 99.6% and the residual activity (ROCK2 (human)) was 87.5%. The residual activity (MAPK9 (human)) was 90.4%, the residual activity (MAP4K4 (human)) was 92.7% and the residual activity (CAMK2G (human)) was 102%. It also gave a residual activity (CAMK1G (human)) of 94.7%, a residual activity (DYRK1B (human)) of 99.2% and a residual activity (STK3 (human)) of 102%. It also gave a residual activity (ULK1 (human)) of 107%, a residual activity (PTK2 (human)) of 99% and a residual activity (PTK6 (human)) of 99.2%. For the same molecule, the residual activity (IKBKB (human)) was 103%, the residual activity (EPHA7 (human)) was 102% and the residual activity (NEK11 (human)) was 97.9%. The residual activity (MARK1 (human)) was 99.3%, the residual activity (PAK1 (human)) was 99% and the residual activity (TSSK2 (human)) was 101%. The residual activity (FRK (human)) was 105%, the residual activity (RET (human)) was 106% and the residual activity (TAOK2 (human)) was 98.3%. For the same molecule, the residual activity (MET (human)) was 107%, the residual activity (SRMS (human)) was 104% and the residual activity (NUAK1 (human)) was 95.5%. For the same molecule, the residual activity (MST4 (human)) was 96.3%, the residual activity (GSK3B (human)) was 97% and the residual activity (CDC42BPA (human)) was 107%. The residual activity (MATK (human)) was 84.5%, the residual activity (STK11 (human)) was 101% and the residual activity (NEK9 (human)) was 102%. The residual activity (PAK3 (human)) was 99.8%, the residual activity (NEK7 (human)) was 95.7% and the residual activity (FES (human)) was 95.4%. For the same molecule, the residual activity (ADRBK1 (human)) was 109%, the residual activity (IKBKE (human)) was 88.1% and the residual activity (EPHA1 (human)) was 112%.

Work on COc1ccc(-c2cnc3c(-c4ccsc4)cnn3c2)cc1 yielded a residual activity (PTK2B (human)) of 81.8%, a residual activity (CAMK2D (human)) of 92% and a residual activity (MUSK (human)) of 74.9%. It also gave a residual activity (OXSR1 (human)) of 90.3%, a residual activity (RPS6KB2 (human)) of 100% and a residual activity (PIM2 (human)) of 105%. It also gave a residual activity (CSNK1G2 (human)) of 82.3%, a residual activity (PRKCD (human)) of 98.9% and a residual activity (ROCK2 (human)) of 90.4%. It also gave a residual activity (MAPK9 (human)) of 104%, a residual activity (MAP4K4 (human)) of 28.4% and a residual activity (CAMK2G (human)) of 93.7%. It also gave a residual activity (CAMK1G (human)) of 100%, a residual activity (DYRK1B (human)) of 78.9% and a residual activity (STK3 (human)) of 97.7%. For the same molecule, the residual activity (ULK1 (human)) was 79%, the residual activity (PTK2 (human)) was 93% and the residual activity (PTK6 (human)) was 77.5%. The residual activity (IKBKB (human)) was 99.6%, the residual activity (EPHA7 (human)) was 91.1% and the residual activity (NEK11 (human)) was 93.3%. It also gave a residual activity (MARK1 (human)) of 98.9%, a residual activity (PAK1 (human)) of 97% and a residual activity (TSSK2 (human)) of 99%. For the same molecule, the residual activity (FRK (human)) was 85.6%, the residual activity (RET (human)) was 92% and the residual activity (TAOK2 (human)) was 97.4%. The residual activity (MET (human)) was 86.3%, the residual activity (SRMS (human)) was 97.4% and the residual activity (NUAK1 (human)) was 77.9%. For the same molecule, the residual activity (MST4 (human)) was 95.7%, the residual activity (GSK3B (human)) was 99.4% and the residual activity (CDC42BPA (human)) was 86.8%. The residual activity (MATK (human)) was 99.4%, the residual activity (STK11 (human)) was 95.9% and the residual activity (NEK9 (human)) was 90.3%. It also gave a residual activity (PAK3 (human)) of 96.4%, a residual activity (NEK7 (human)) of 109% and a residual activity (FES (human)) of 98.2%. The residual activity (ADRBK1 (human)) was 100%, the residual activity (IKBKE (human)) was 85.5% and the residual activity (EPHA1 (human)) was 91.5%.
